Results from US8143276B2, “4-thio substituted quinoline and naphthyridine compounds” (XTL Biopharmaceuticals Ltd., priority 2007, dated 2012).

Key:
[1] = CellTiter-Glo Cell Viability Assay; assay type: cell-based, human; conditions: human, Huh-Luc-Neo cells, read-out: Cytotoxicity*
Description: (§1) Day 0, Cell Seeding and Compound Treatment: Huh-Luc-Neo Cells are seeded at 25,000/well in an opaque-walled 96 plate with Growth Medium (DMEM phenol red free+PS+2 mM glutamine; 100 ul/well). The compounds to be tested for inhibition of cell viability are added to the experimental wells (10 μl/well at 10× assay concentration) and the cells are then incubated (5% CO2, 37° C.) for 48 h.
(§2) Day 2, Reagent Preparation and Assay: The CellTiter-Glo Buffer is thawed and equilibrated to room temperature prior to use. The lyophilized CellTiter-Glo Substrate is equilibrated to room temperature prior to use. 10 ml of CellTiter-Glo Buffer is transferred to 1 vial of CellTiter-Glo Substrate and mixed by gently with a Vortex. 100 μl of CellTiter-Glo Assay reagent (CellTiter-Glo Buffer+CellTiter-Glo Substrate Mixture) is added to each well. The well contents are mixed for 5 min. on an orbital shaker at room temperature to induce cell lysis and the luminescence is then measured using a luminometer.

[2] = system: HCV RNA; assay: HCV Replicon RNA Assay (Taqman); assay type: cell-based, Hepatitis C virus; conditions: Hepatitis C virus; Huh-Luc-Neo cells, compound re-added at 24 h, HCV RNA by quantitative PCR; read-out: Replicon Inhibition*, Taqman
Description: (§3) Expression of HCV IRES driven luciferase reporter activity and HCV RNA is measured to obtain indirect and direct measures of replication of HCV RNA respectively. Inhibitors of HCV replication and/or proliferation are determined by initially identifying molecules that inhibit expression of the HCV IRES driven luciferase reporter in this HCV Replicon Luciferase Assay. Cell viability assays and control cell based luciferase assays are then run on hits identified in the HCV Replicon Luciferase Assay to eliminate cytoxic compounds and non-specific compounds which act by inhibiting the luciferase enzyme.
as §1, with “μl/well).” for “ul/well).”, “tested” for “tested for inhibition of cell viability”, “C.).” for “C.) for 48 h.”
Day 1, Media Change and Compound Treatment: 24 hours after the initial compound treatment the cell culture media is aspirated from the wells and fresh Growth Medium is added (DMEM phenol red free+PS+2 mM glutamine; 100 μl/well). The compounds to be tested are then added to the appropriate experimental wells (10 μl/well at 10× assay concentration) and the cells are then incubated (5% CO2, 37° C.) for an additional 24 hrs.
Day 2, RNA Isolation and cDNA Synthesis: The cells are washed with 1× Phosphate Buffered Saline (PBS) once.
Day 3, Quantitative PCR Based Measurement of HCV RNA (Taqman Assay): Quantitative PCR analysis to measure HCV RNA expression from cDNA synthesized on Day 2 is performed using the ABI 9700 HT Sequence Detection System (Applied Biosystems) as previously described (Lohman et al, Science 285, 110-113, 1999). The data is analyzed and IC50s are determined using GraphPad Prism 4 software. Hits validated in the Replicon RNA Assay have IC50s<8.0 μM and show <30% inhibition of Cell Viability at a compound concentration of 50 μM (Cell Titer Glow Assay, cell viability assay conditions identical to HCV Replicon RNA Assay conditions).

[3] = system: HCV Replicon; assay: HCV Replicon Luciferase Assay; assay type: cell-based, Hepatitis C virus; conditions: Hepatitis C virus; Huh-Luc-Neo cells, 48 h incubation, luciferase reporter; read-out: Replicon Inhibition*, Luciferase
Description: The identification of inhibitors of HCV replication and/or proliferation has been facilitated by the development of a cell-based system to study HCV replication. Inhibition of HCV replication may be performed using the HCV Replicon Assay developed in the laboratories of Bartenschlager (Lohman et al, Science 285, 110-113, 1999) and Rice (Blight et al, Science 290, 1972-1974, 2000). The assay is performed using the Huh-Luc-Neo cell line (Lohman et al, Science 285, 110-113, 1999). Huh-Luc-Neo cells are a human hepatoma cell line (Huh-7) stably expressing a bi-cistronic subgenomic replicon containing the HCV IRES in which the structural proteins of HCV have been deleted and replaced by a construct containing sequences coding for the firefly luciferase reporter gene, the neomycin selectable marker and the EMCV IRES to direct expression of a truncated HCV genome expressing the […] NS3, NS4A, NS4B, NS5A, and NS5B. HCV targets through which inhibitors could act to inhibit replication include the NS3 protease, the helicase/ATPase, NS5A, the NS5B-RNA dependent RNA polymerase, and the HCV IRES.
as §3
as §1, with “μl/well).” for “ul/well).”, “tested” for “tested for inhibition of cell viability”
Day 2, Reagent Preparation and Luciferase Assay: The Bright-Glo Luciferase Assay Buffer (Promega) is thawed and equilibrated to room temperature prior to use. The lyophilized Bright-Glo Luciferase Assay Substrate is equilibrated to room temperature prior to use. 10 ml of Bright-Glo Luciferase Assay Buffer is transferred to 1 vial of Bright-Glo Luciferase Assay Substrate bottle and mixed by gently with a Vortex. 100 μl of Bright-Glo Luciferase Assay reagent (Bright-Glo Luciferase Assay Buffer+Bright-Glo Luciferase Assay Substrate Mixture) is added to each well. The well contents are mixed for 5 min. on an orbital shaker at room temperature to induce cell lysis and the luminescence is then measured using a luminometer. The data is analyzed and IC50s are determined using GraphPad Prism 4 software. Hits validated in the Replicon Luciferase assay have IC50s<8.0 μM and show <30% inhibition of Cell Viability at a compound concentration of 100 μM (Cell Titer Glow Assay, cell viability assay conditions identical to HCV Replicon Luciferase Assay conditions).

[4] = system: Huh-Luc-Neo Cells; assay: CellTiter-Glo Cell Viability Assay; assay type: cell-based, human; conditions: 48 h, read-out: Cytotoxicity*
Description: as §1, §2

Compound | IC50 at 48 h [1] [µM] | IC50 [2] [µM] | IC50 [3] [µM] | IC50 [4] [µM]
Cn1c(=O)cc(Sc2ccc(Br)cc2)c2ccccc21 [compound 001] | > 100 | < 1 | 1 to 10 | –
Cn1c(=O)cc(Sc2ccc(Cl)cc2)c2ccccc21 [compound 002] | > 100 | 1 to 10 | 1 to 10 | –
Cn1c(=O)cc(Sc2ccc(F)cc2)c2ccccc21 [compound 003] | > 100 | 1 to 10 | 1 to 10 | –
Cn1c(=O)cc(Sc2c(Cl)cccc2Cl)c2ccccc21 [compound 004] | > 100 | < 1 | 1 to 10 | –
Cn1c(=O)cc(Sc2ccccc2F)c2ccccc21 [compound 005] | – | 1 to 10 | 1 to 10 | 10 to 100
Cn1c(=O)cc(Sc2cc(Cl)ccc2Cl)c2ccccc21 [compound 006] | > 100 | 1 to 10 | 10 to 100 | –
Cn1c(=O)cc(Sc2cccc(F)c2)c2ccccc21 [compound 007] | > 100 | 1 to 10 | 1 to 10 | –
Cn1c(=O)cc(Sc2ccc(N)cc2)c2ccccc21 [compound 009] | > 100 | < 1 | < 1 | –
CCn1c(=O)cc(Sc2ccc(Br)cc2)c2ccccc21 [compound 010] | > 100 | < 1 | 1 to 10 | –
Cn1c(=O)cc(Sc2ccc(Br)cc2)c2cc(Cl)ccc21 [compound 011] | > 100 | 1 to 10 | 1 to 10 | –
COc1ccc(Sc2cc(=O)n(C)c3ccccc23)cc1 [compound 012] | > 100 | 10 to 100 | 1 to 10 | –
Cn1c(=O)cc(Sc2ccc(C(C)(C)C)cc2)c2ccccc21 [compound 013] | > 100 | < 1 | 1 to 10 | –
Cn1c(=O)cc(Sc2ccc(I)cc2)c2ccccc21 [compound 014] | > 100 | < 1 | 1 to 10 | –
Cn1c(=O)cc(Sc2ccc(Cl)cc2)c2cc(F)ccc21 [compound 015] | > 100 | 1 to 10 | 1 to 10 | –
Cc1ccc(Sc2cc(=O)n(C)c3ccc(F)cc23)cc1 [compound 016] | > 100 | 1 to 10 | 1 to 10 | –
CC(=O)Nc1ccc(Sc2cc(=O)n(C)c3ccccc23)cc1 [compound 017] | > 100 | 1 to 10 | 1 to 10 | –
Cn1c(=O)cc(Sc2ccc(F)cc2)c2cc(F)ccc21 [compound 018] | > 100 | 1 to 10 | 1 to 10 | –
Cn1c(=O)cc(Sc2ccc(N)cc2)c2cccnc21 [compound 019] | > 100 | 1 to 10 | < 1 | –
Cc1ccc(Sc2cc(=O)n(C)c3ncccc23)cc1 [compound 020] | > 100 | 1 to 10 | < 1 | –

Compound | IC50 at 48 h [1] [µM] | IC50 [2] [µM] | IC50 [3] [µM] | IC50 [4] [µM]
COCCOCC(=O)Nc1ccc(Sc2cc(=O)n(C)c3ccccc23)cc1 [compound 021] | > 100 | 1 to 10 | < 1 | –
Cn1c(=O)cc(Sc2ccc(NC(=O)[C@H](Cc3ccccc3)NC(=O)OC(C)(C)C)cc2)c2ccccc21 [compound 022] | > 100 | 1 to 10 | 1 to 10 | –
C[C@H](OCc1ccccc1)[C@@H](NC(=O)OC(C)(C)C)C(=O)Nc1ccc(Sc2cc(=O)n(C)c3ccccc23)cc1 [compound 023] | > 100 | 1 to 10 | 1 to 10 | –
Cn1c(=O)cc(Sc2ccc(NC(=O)[C@@H](NC(=O)OC(C)(C)C)C3CCCCC3)cc2)c2ccccc21 [compound 024] | > 100 | 1 to 10 | < 1 | –
Cn1c(=O)cc(Sc2ccc(NC(=O)[C@H](Cc3ccc(F)cc3)NC(=O)OC(C)(C)C)cc2)c2ccccc21 [compound 025] | > 100 | 1 to 10 | 1 to 10 | –
Cc1ccc2c(c1)c(Sc1ccc(F)cc1)cc(=O)n2C [compound 026] | 10 to 100 | < 1 | < 1 | –
Cn1c(=O)cc(Sc2ccc(N)cc2)c2ccc(Cl)cc21 [compound 027] | 10 to 100 | < 1 | < 1 | –
Cc1ccc2c(c1)c(Sc1ccc(Cl)cc1)cc(=O)n2C [compound 028] | 10 to 100 | < 1 | < 1 | –
COc1ccc2c(c1)c(Sc1ccc(C)cc1)cc(=O)n2C [compound 029] | > 100 | < 1 | < 1 | –
COc1ccc2c(c1)c(Sc1ccc(N)cc1)cc(=O)n2C [compound 030] | 10 to 100 | < 1 | < 1 | –
Cc1ccc2c(c1)c(Sc1ccc(Br)cc1)cc(=O)n2C [compound 031] | 10 to 100 | < 1 | < 1 | –
Cc1ccc(Sc2cc(=O)n(C)c3ccc(C)cc23)cc1 [compound 032] | 10 to 100 | < 1 | < 1 | –
Cc1ccc2c(c1)c(Sc1ccc(N)cc1)cc(=O)n2C [compound 033] | > 100 | < 1 | < 1 | –
Cc1ccc(Sc2cc(=O)n(C)c3cc(C)c(C)cc23)cc1 [compound 034] | > 100 | < 1 | < 1 | –
Cc1cc2c(Sc3ccc(N)cc3)cc(=O)n(C)c2cc1C [compound 035] | > 100 | < 1 | < 1 | –
Cc1ccc(NC(=S)Nc2ccc(Sc3cc(=O)n(C)c4ccc(C)cc34)cc2)cc1 [compound 036] | > 100 | 1 to 10 | 1 to 10 | –
Cc1cc2c(Sc3ccc(F)cc3)cc(=O)n(C)c2cc1C [compound 037] | > 100 | < 1 | < 1 | –
CCc1ccc2c(c1)c(Sc1ccc(N)cc1)cc(=O)n2C [compound 038] | > 100 | < 1 | < 1 | –
